The values that follow are results of earlier work, collected in US20220154183A1, “CHMP2A as a Regulator of Natural Killer Cell-Mediated Activity” (The Regents of the University of California, priority 2019, published 2022).

In this series the test system is HNSCC. The note with it: cetuximab as monotherapy.

In the case of Nivolumab, the patients responding is 20%.
Turning to pembrolizumab, the patients responding is given as 20%.
